In patent US8808702B2, “Sulfide, sulfoxide and sulfone chalcone analogues, derivatives thereof and therapeutic uses thereof” (Temple University-of the Commonwealth System of Higher …, priority 2006, dated 2014):

Key:
[1] = system: K562 (chronic myelogenous leukaemia); test: Effect of compounds on tumor cell lines (assay of Latham et al.), K562; format: cell-based; settings: Homo sapiens; Table 4; K562 cells, examined 96 hours after treatment, 1 μM to 100 μM in DMSO; read-out: K 562 potency (IC50)
Method in brief: (§1)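 K562 or DU145 cells plated at 2.5×10^4 cells/well, treated 24 h later with compound in DMSO at 1 μM to 100 μM (0.1 μM to 100 μM for one compound). Activity judged by microscopic observation after 96 h; where needed, viable cells counted by trypan blue exclusion.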

DU145 (prostate cancer) = test: Effect of compounds on tumor cell lines (assay of Latham et al.), DU145; format: cell-based; settings: Homo sapiens, DU-145; Table 4; DU145 cells, examined 96 hours after treatment, 1 μM to 100 μM in DMSO; read-out: DU 145 potency (IC50)
Method in brief: as §1

IC50 [1] [µM] | IC50 (DU145 (prostate cancer)) [µM] | melting point [°C] | Structure (SMILES)
25 to 50 | 25 to 50 | 180 to 182 | O=C(/C(=C\c1ccc(Br)cc1)S(=O)(=O)Cc1ccc(I)cc1)c1ccc(I)cc1 [Example 419, (E)-1-(4-Iodophenyl)-2-(4-iodobenzylsulfonyl)-3-(4-bromophenyl)prop-2-en-1-one]
1 to 10 | 1 to 10 | 91 to 99 | O=C(/C(=C\c1ccc(OCc2ccccc2)cc1)S(=O)(=O)Cc1ccc(Cl)cc1)c1ccc(Cl)cc1 [Example 391]
1 to 10 | 1 to 10 | 174 to 179 | Cc1ccsc1/C=C(\C(=O)c1ccc([N+](=O)[O-])cc1)S(=O)(=O)Cc1ccc(Cl)cc1 [Example 389]
> 100 | > 100 | 232 to 236 | O=C(/C(=C\c1c(O)cc(O)cc1O)S(=O)(=O)Cc1ccc(Cl)cc1)c1ccc(Cl)cc1 [Example 377]
